Data reported in ChEMBL document CHEMBL1201862, “PubChem BioAssay data set” (2004).
The source made the active and inactive calls.

Key:
[1] = Counterscreen for inhibitors of Trypanosoma brucei methionyl tRNA synthetase (MetRS): Luminescence-based cell-based high throughput dose response assay to identify compounds that are cytotoxic to Jurkat human T lymphocyte cells.; assay type: functional; details: Homo sapiens, Jurkat
[2] = target: ADP-ribosylation factor GTPase-activating protein 1 (Rattus norvegicus, UniProt Q62848); experiment: Fluorescence polarization-based biochemical high throughput dose response screening assay to identify inhibitors of ADP-ribosylation factor GTPase activating protein 1 (ARFGAP1).; assay type: functional
Sequence of ADP-ribosylation factor GTPase-activating protein 1 (Q62848 whole entry): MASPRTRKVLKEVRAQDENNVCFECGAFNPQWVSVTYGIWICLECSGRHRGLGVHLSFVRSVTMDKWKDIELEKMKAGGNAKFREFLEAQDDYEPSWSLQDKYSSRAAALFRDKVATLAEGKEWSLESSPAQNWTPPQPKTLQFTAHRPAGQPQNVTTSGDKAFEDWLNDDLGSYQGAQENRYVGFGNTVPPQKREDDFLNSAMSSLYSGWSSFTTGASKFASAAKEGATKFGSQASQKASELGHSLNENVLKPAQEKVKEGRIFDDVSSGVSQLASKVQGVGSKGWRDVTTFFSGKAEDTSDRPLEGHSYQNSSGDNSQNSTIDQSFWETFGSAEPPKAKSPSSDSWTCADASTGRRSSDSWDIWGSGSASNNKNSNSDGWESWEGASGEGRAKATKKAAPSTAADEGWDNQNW

[3] = target: T1, Low molecular weight phosphotyrosine protein phosphatase (Homo sapiens, UniProt P24666); assay type: functional; details: read-out: IC50_Mean
T1 sequence (P24666 whole entry): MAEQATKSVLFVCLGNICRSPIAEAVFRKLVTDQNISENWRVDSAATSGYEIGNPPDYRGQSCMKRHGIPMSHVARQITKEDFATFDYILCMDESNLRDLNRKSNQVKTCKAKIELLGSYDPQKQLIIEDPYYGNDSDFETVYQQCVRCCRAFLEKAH

[4] = target: G-protein coupled receptor 55 (Homo sapiens, UniProt Q9Y2T6); experiment: GPR55 antagonists blocking LPI-driven arrestin recruitment, primary screen, imaging, U2OS, beta-arrestin-GFP, LPI agonist (AID 2013); assay type: functional;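 further: antagonist potency measured as reduced agonist-driven arrestin aggregation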
Sequence of G-protein coupled receptor 55 (Q9Y2T6 whole entry): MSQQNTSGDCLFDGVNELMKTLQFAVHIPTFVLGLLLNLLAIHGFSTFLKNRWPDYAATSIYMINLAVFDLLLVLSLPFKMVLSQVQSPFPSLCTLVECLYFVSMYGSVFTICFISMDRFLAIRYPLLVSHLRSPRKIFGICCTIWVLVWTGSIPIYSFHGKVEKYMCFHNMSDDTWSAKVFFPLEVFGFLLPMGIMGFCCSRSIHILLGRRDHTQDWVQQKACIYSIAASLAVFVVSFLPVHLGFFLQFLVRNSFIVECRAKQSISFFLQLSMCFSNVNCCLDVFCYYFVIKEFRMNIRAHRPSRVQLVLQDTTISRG

[5] = target: T2, Tyrosine-protein phosphatase non-receptor type 11 (Homo sapiens, UniProt Q06124); experiment: SHP2 phosphatase inhibition, dose response, selectivity assay for STEP inhibitor project, biochemical (AID 602367); assay type: functional; details: read-out: IC50_Mean
T2 sequence (Q06124 whole entry): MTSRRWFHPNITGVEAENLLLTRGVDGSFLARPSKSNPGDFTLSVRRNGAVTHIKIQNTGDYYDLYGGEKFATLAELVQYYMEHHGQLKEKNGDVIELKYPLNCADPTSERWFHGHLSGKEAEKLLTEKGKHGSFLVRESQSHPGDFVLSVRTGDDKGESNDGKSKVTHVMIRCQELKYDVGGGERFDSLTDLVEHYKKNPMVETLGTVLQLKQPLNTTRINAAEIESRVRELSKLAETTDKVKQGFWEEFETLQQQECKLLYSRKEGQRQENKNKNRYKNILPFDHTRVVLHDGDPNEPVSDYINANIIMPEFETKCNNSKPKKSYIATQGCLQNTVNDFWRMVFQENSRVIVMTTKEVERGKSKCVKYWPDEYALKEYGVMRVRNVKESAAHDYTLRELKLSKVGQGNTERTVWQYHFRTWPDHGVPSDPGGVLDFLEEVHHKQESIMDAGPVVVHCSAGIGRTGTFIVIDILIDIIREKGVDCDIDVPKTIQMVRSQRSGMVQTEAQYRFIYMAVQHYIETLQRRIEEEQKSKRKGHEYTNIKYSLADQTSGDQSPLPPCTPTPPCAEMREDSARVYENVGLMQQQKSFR

[6] = target: T3, Tyrosine-protein phosphatase non-receptor type 5 (Homo sapiens, UniProt P54829); experiment: STEP phosphatase inhibitors, confirmation, biochemical, fluorescence intensity, uHTS hits (AID 602372); assay type: functional; details: read-out: IC50_Mean
T3 sequence (P54829 whole entry): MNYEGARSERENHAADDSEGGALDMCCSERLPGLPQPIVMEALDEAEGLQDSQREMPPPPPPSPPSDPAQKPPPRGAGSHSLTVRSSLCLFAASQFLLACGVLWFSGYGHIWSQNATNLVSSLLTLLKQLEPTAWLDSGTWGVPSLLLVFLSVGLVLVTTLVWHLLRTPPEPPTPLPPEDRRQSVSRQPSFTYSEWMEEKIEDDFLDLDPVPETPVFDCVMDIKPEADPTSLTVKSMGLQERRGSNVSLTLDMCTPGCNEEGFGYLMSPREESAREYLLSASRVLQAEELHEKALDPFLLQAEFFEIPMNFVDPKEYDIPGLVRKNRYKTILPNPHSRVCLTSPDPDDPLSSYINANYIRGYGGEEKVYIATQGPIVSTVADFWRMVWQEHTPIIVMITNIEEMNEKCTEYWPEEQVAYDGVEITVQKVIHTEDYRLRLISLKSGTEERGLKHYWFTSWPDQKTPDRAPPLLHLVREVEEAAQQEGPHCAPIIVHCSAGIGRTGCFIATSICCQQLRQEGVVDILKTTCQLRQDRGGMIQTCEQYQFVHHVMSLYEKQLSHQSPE

[7] = target: Dual specificity protein phosphatase 3 (Homo sapiens, UniProt P51452); experiment: VHR phosphatase inhibition, dose response, selectivity assay for STEP inhibitor project, biochemical (AID 602374); assay type: functional; details: read-out: IC50_Mean
Sequence of Dual specificity protein phosphatase 3 (P51452 whole entry): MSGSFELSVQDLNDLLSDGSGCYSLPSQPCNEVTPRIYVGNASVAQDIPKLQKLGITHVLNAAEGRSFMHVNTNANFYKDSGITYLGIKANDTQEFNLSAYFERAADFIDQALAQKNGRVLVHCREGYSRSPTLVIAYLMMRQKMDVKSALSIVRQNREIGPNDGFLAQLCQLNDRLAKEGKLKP

[8] = target: Tyrosine-protein phosphatase non-receptor type 22 (Homo sapiens, UniProt Q9Y2R2); experiment: PTPN22 phosphatase inhibition, dose response, selectivity assay for STEP inhibitor project, biochemical (AID 624241); assay type: functional
Sequence of Tyrosine-protein phosphatase non-receptor type 22 (Q9Y2R2 whole entry): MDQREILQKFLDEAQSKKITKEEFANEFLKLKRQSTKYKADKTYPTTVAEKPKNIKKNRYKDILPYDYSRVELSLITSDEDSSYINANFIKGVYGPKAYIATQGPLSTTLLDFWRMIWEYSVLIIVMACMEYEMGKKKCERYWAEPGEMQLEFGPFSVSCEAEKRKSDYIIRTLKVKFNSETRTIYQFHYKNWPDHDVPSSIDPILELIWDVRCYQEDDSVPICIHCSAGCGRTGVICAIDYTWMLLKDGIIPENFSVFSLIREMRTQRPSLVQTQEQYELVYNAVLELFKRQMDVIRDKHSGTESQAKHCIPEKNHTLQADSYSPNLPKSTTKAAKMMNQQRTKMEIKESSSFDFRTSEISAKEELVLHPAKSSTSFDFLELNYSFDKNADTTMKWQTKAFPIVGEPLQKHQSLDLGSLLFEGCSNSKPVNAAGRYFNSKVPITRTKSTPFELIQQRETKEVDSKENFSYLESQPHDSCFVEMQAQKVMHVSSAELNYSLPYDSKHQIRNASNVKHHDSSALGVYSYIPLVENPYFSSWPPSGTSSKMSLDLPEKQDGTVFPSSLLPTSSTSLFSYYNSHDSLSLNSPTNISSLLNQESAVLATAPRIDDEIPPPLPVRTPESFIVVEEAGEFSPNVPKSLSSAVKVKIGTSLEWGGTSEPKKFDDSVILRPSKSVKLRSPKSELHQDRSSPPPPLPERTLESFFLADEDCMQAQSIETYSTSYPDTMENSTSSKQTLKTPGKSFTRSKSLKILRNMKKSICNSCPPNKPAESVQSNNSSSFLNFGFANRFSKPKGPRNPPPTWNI

[9] = THP-1 cell cytotoxicity, dose response, cytotoxicity control for non-replicating M. tuberculosis project (AID 489025); assay type: functional
[10] = Vero E6 cell cytotoxicity, dose response, cytotoxicity control for non-replicating M. tuberculosis project, secondary assay (AID 492998); assay type: functional, VeroE6; details: Vero C1008
[11] = cells; assay type: functional
[12] = target: T4, Replicative DNA helicase DnaB (Mycobacterium tuberculosis, UniProt P9WMR3); experiment: DnaB intein splicing inhibitors, dose response, biochemical, cell-free fluorescence (AID 449749); assay type: functional
T4 sequence (P9WMR3 whole entry): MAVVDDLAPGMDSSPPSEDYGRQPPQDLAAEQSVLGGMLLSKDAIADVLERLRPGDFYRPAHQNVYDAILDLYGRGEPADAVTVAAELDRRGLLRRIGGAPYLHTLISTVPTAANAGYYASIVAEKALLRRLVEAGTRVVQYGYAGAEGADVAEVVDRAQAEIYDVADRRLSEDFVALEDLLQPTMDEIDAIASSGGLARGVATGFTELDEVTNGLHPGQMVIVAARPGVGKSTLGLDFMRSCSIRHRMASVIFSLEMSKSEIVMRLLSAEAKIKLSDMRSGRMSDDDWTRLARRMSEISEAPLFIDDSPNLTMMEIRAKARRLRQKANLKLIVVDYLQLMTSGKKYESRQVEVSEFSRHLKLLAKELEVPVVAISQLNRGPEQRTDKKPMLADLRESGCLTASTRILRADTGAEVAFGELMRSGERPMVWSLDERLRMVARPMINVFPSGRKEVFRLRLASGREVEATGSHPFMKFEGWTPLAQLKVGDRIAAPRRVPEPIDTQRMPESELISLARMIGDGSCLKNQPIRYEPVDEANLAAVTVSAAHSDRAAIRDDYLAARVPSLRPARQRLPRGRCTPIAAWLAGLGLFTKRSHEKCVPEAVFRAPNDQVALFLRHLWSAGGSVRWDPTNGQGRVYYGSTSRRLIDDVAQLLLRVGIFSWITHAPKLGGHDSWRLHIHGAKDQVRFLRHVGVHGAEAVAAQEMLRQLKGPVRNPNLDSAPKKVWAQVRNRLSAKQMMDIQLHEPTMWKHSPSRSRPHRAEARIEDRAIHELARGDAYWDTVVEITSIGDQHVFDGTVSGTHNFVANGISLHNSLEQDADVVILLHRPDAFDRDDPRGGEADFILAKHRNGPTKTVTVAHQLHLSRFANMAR

[13] = target: T5, Protein RecA (Mycobacterium tuberculosis, UniProt P9WHJ3); experiment: Fluorescence Cell-Free Homogeneous Dose Retest to Identify Inhibitors of RecA-Intein Splicing Activity. [Related pubchem assays (depositor defined):AID2097, AID2223, AID489010, AID492950]; assay type: functional
T5 sequence (P9WHJ3 whole entry): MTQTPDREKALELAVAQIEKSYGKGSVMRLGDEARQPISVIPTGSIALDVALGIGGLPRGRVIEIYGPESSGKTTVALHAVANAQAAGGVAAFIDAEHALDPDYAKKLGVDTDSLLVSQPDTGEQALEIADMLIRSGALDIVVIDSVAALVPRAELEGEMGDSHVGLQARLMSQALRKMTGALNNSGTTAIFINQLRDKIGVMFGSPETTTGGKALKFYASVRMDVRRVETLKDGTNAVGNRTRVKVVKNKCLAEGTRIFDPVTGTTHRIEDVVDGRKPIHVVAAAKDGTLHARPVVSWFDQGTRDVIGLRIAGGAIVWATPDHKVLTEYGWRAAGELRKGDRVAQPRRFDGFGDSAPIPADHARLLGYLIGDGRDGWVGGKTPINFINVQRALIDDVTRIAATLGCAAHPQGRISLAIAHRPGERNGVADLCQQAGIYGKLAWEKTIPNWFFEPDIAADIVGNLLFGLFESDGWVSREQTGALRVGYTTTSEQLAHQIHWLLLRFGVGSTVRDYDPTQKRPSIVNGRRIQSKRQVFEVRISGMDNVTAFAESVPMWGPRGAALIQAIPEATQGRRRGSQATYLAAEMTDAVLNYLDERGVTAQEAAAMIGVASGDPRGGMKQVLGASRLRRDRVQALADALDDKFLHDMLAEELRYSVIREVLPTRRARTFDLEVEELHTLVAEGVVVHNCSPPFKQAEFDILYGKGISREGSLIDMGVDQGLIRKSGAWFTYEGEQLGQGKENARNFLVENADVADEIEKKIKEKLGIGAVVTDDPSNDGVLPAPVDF

[14] = Fluorescence-based cell-based high throughput dose response assay for inhibitors of the interaction of nucleotide-binding oligomerization domain containing 2 (NOD2) and the receptor-interacting serine-threonine kinase 2 (RIPK2).; assay type: functional; details: Homo sapiens
[15] = target: T6, Methionyl-tRNA synthetase, putative (Trypanosoma brucei brucei, UniProt Q38C91); assay type: functional, Trypanosoma brucei brucei strain 927/4 GUTat10.1
T6 sequence (Q38C91 whole entry): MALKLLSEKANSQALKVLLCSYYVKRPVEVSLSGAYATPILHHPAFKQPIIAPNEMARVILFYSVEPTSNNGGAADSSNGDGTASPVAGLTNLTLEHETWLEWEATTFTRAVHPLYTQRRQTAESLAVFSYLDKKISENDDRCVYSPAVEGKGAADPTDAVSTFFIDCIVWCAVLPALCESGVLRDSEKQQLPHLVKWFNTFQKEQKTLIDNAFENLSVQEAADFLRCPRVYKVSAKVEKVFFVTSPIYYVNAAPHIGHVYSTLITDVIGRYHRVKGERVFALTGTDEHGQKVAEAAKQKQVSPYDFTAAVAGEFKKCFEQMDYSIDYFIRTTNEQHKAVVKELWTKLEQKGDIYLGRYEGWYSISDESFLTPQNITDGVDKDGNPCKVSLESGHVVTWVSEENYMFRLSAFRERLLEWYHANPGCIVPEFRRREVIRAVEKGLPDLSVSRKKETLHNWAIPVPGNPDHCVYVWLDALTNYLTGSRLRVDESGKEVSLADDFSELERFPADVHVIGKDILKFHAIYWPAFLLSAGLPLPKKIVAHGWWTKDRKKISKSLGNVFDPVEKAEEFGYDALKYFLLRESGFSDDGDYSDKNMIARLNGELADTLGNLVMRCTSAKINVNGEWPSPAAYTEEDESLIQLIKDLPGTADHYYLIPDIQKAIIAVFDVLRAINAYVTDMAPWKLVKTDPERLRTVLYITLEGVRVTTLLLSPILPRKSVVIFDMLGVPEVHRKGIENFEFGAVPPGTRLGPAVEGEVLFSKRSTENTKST

[16] = target: T6, Methionyl-tRNA synthetase, putative; assay type: functional, Trypanosoma brucei brucei strain 927/4 GUTat10.1; remark: listed apart in the source
[17] = target: Nonstructural protein 1 (Influenza A virus, UniProt Q194T2); assay type: functional, Influenza A virus (A/California/07/2009(H1N1))
Sequence of Nonstructural protein 1 (Q194T2 whole entry): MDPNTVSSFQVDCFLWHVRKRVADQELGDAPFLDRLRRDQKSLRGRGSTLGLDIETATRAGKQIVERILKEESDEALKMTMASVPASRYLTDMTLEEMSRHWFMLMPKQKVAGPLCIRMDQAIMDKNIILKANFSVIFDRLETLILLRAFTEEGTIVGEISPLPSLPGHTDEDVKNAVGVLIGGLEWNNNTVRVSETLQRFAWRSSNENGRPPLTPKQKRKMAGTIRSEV

[18] = HeLa cell cytotoxicity, dose response, cytotoxicity control for MgcRacGAP inhibitor project (AID 624300); assay type: functional
[19] = target: T7, Rac GTPase-activating protein 1 (Homo sapiens, UniProt Q9H0H5); experiment: MgcRacGAP GTPase-activating activity inhibitors, confirmation, biochemical, ADP Hunter fluorescence, primary and confirmatory (AID 624330); assay type: functional
T7 sequence (Q9H0H5 whole entry): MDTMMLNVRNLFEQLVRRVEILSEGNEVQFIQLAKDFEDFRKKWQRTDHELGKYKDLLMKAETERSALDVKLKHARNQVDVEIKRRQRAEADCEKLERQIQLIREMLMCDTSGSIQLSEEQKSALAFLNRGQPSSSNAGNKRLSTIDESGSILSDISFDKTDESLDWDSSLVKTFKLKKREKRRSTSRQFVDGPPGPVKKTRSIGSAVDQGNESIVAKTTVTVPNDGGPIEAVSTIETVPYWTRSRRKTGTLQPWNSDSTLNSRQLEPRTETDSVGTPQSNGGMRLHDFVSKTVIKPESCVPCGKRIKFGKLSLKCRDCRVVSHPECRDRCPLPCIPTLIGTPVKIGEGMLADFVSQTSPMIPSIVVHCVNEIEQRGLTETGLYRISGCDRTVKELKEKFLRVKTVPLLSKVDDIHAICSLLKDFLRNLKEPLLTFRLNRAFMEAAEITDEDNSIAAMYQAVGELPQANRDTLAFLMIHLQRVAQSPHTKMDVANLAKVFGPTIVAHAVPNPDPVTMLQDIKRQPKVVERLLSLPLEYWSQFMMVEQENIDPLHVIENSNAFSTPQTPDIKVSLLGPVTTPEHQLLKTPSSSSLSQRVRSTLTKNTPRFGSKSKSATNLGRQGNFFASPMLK

SMILES: O=S(=O)(c1ccc2[nH]c(SCc3ccc(Cl)cc3)nc2c1)N1CCOCC1
- IC50 [1]: 16.9 µM (inactive)

SMILES: Cc1cc(OCC(=O)Nc2cccnc2)c2c(C)c(C)c(=O)oc2c1
- IC50 [2]: 64.9 µM (inactive)

SMILES: NC(=S)NN=C1Cc2cccc3cccc1c23
- IC50 [3]: 4.94 µM (active)

SMILES: COc1ccccc1NS(=O)(=O)c1cc(NC(=S)NCCN2CCOCC2)ccc1N1CCOCC1
- IC50 [4]: 3.2 µM (active)
- IC50 [5]: 0.891 µM (active)
- IC50 [6]: 8.37 µM (active)
- IC50 [7]: 0.498 µM (active)
- IC50 [8]: 31.4 µM (inactive)

SMILES: Cc1noc2ncnc(Sc3ccccc3Cl)c12
- CC50 [9]: 20.2 µM (active)
- CC50 [10]: 16.9 µM (active)
- IC50 [11]: 9.99 µM (active)
- AC50 [12]: 12.2 µM (active)
- EC50 [13]: 4.04 µM (active)
- IC50 [14]: 4.4 µM (active)

SMILES: O=S(=O)(c1ccc2nc(SCc3ccc(Cl)cc3)[nH]c2c1)N1CCOCC1
- IC50 [15]: 32.3 µM (inactive)
- IC50 [16]: 30.8 µM (inactive)

SMILES: COc1ccc2c(c1)-c1c(ssc1=S)C(C)(C)N2
- IC50 [17]: 22.7 µM (active)
- CC50 [18]: 100 µM (active)
- IC50 [19]: 29.4 µM (active)
